{"source": "patent US20080188497A1", "about": "“Dipyridamole, Acetylsalicylic Acid, and Angiotensin II Antagonist Pharmaceutical Compositions” (Boehringer Ingelheim International GmbH, priority 2003, published 2008)", "origin": "cited, not measured here", "conditions": "ESPS-2 clinical study; compared with low-dose aspirin / aspirin alone"}
{"compound": "OCCN(CCO)c1nc(N2CCCCC2)c2nc(N(CCO)CCO)nc(N3CCCCC3)c2n1", "note": "[dipyridamole, 2,6-bis(diethanolamino)-4,8-dipiperidinopyrimido[5,4-d]pyrimidine]", "values": [{"measurement": "reduction of stroke risk", "result": "as effective as low-dose aspirin"}]}
